Like-named read-outs stand apart in the source and are kept apart here.
What was measured:
[1] = tested on: kidneys of Wistar rats; details: cited from earlier work
[2] = tested on: participants; test: Anxiety by Visual Analog Scale; format: in vivo, human
Procedure: All supplements were orally ingested with 8 fluid ounces of cold tap water. Anxiety was measured by Visual Analog Scale (VAS) at baseline, 30, 60, 90, 120 and 180 minutes after ingestion.

[3] = tested on: participants; test: Resting heart rate, crossover vs caffeine; format: in vivo, human
Description: (§1) All supplements were orally ingested with 8 fluid ounces of cold tap water.

[4] = tested on: participants; test: Systolic blood pressure, crossover vs caffeine; format: in vivo, human
Description: as §1

[5] = tested on: participants; test: Diastolic blood pressure, crossover vs caffeine; format: in vivo, human
Procedure: All supplements were orally ingested with 8 fluid ounces of cold tap water. Resting Heart Rate, Systolic and Diastolic Blood Pressure was measured at baseline, 30, 60, 90, 120 and 180 minutes after ingestion.

[6] = tested on: participants; test: Respiratory quotient, placebo-controlled crossover; format: in vivo, human
Procedure: All supplements were orally ingested with 8 fluid ounces of cold tap water. The order of administration for all interventions was randomized using a random allocation software to ensure randomization and to avoid order effects. After ingestion, participants completed all assessments in an identical fashion 30, 60, 90, 120, and 180 minutes after ingestion of their assigned supplement. All study visits took place between 0600-1000 hours. At least 72 hours of rest will take place between each condition.
The lower the RQ, the more fat that is being oxidized for body energy needs. The closer to 1.0 the more carbohydrate is being burned for energy needs. If numbers are lower more fat is being oxidized.

[7] = Person one, time 0, 200 mg oral
[8] = Person two, time 0, 200 mg oral

For `Cn1c(=O)[nH]c(=O)c2[nH]cnc21` [3-methylxanthine], the serum urea ([1]; 100 mg kg^−1, after 16 days) is given as “Elevated values of serum urea were found”, the Tubular necrosis ([1]; 100 mg kg^−1 per day oral, after 16 days) is given as “Tubular necrosis was noticed” and the serum urea ([1]; 200 mg kg^−1, after 1 day) is given as “Elevated values of serum urea were found”. The serum creatinine ([1]; 200 mg kg^−1, after 8 days) was “Elevated values of serum creatinine were detected”, the Tubular necrosis ([1]; 200 mg kg^−1 per day oral, after 8 days) was “Tubular necrosis was noticed” and the overall renal outcome ([1]; 50-200 mg per kg per day, 1-16 days) was “dose- and time-related renal failure”.
For `Cn1c(=O)c2c(ncn2C)n(C)c1=O` [caffeine, reference compound], the “Anxiety (VAS) MEAN (30-180)” value ([2]; Average) was 74.4, the “Anxiety (VAS) Mean Δ from 0” value ([2]; Average, listed as CA) was 65% and the “Anxiety (VAS) MEAN (30-180)” value ([2]; Person one) was 74.6. The “Anxiety (VAS) Mean Δ from 0” value ([2]; Person one) was “+44.6”, the “Anxiety (Visual Analog Scale)” value ([2]; Person one, 30 min) was 61 and the “Anxiety (Visual Analog Scale)” value ([2]; Person one, 60 min) was 80. For the same compound, the “Anxiety (Visual Analog Scale)” value ([2]; Person one, 90 min) was 80, the “Anxiety (Visual Analog Scale)” value ([2]; Person one, 120 min) was 71 and the “Anxiety (Visual Analog Scale)” value ([2]; Person one, 180 min) was 81. The “Anxiety (Visual Analog Scale)” value [2, 7] was 30, the “Anxiety (VAS) MEAN (30-180)” value ([2]; Person two) was 74.2 and the “Anxiety (VAS) Mean Δ from 0” value ([2]; Person two) was “+14.2”. For the same compound, the “Anxiety (Visual Analog Scale)” value ([2]; Person two, 30 min) was 70, the “Anxiety (Visual Analog Scale)” value ([2]; Person two, 60 min) was 75 and the “Anxiety (Visual Analog Scale)” value ([2]; Person two, 90 min) was 76. For the same compound, the “Anxiety (Visual Analog Scale)” value ([2]; Person two, 120 min) was 75, the “Anxiety (Visual Analog Scale)” value ([2]; Person two, 180 min) was 75 and the “Anxiety (Visual Analog Scale)” value [2, 8] was 60. For the same compound, the “Resting Heart Rate Mean Δ from 0” value ([3]; Average, listed as CA) was 10%, the “Resting Heart Rate Mean Δ from 0” value ([3]; Person one) was “+6.2 bpm” and the “Resting Heart Rate” value ([3]; Person one, 30 min) was 64 bpm. For the same compound, the “Resting Heart Rate” value ([3]; Person one, 60 min) was 56 bpm, the “Resting Heart Rate” value ([3]; Person one, 90 min) was 51 bpm and the “Resting Heart Rate” value ([3]; Person one, 120 min) was 61 bpm. For the same compound, the “Resting Heart Rate” value ([3]; Person one, 180 min) was 44 bpm, the “Resting Heart Rate” value [3, 7] was 49 bpm and the “Resting Heart Rate Mean Δ from 0” value ([3]; Person two) was “+4.6 bpm”. For the same compound, the “Resting Heart Rate” value ([3]; Person two, 30 min) was 65 bpm, the “Resting Heart Rate” value ([3]; Person two, 60 min) was 62 bpm and the “Resting Heart Rate” value ([3]; Person two, 90 min) was 62 bpm. For the same compound, the “Resting Heart Rate” value ([3]; Person two, 120 min) was 64 bpm, the “Resting Heart Rate” value ([3]; Person two, 180 min) was 69 bpm and the “Resting Heart Rate” value [3, 8] was 59 bpm. The “Systolic Blood Pressure MEAN (30-180)” value ([4]; Person one) was 130.0 mm Hg, the “Systolic Blood Pressure MEAN (30-180)” value ([4]; Person two) was 119.6 mm Hg and the “Diastolic Blood Pressure MEAN (30-180)” value ([5]; Average) was 80.2 mm Hg. For the same compound, the “Diastolic Blood Pressure Mean Δ from 0” value ([5]; Average, listed as CA) was 20.3%, the “Diastolic Blood Pressure MEAN (30-180)” value ([5]; Person one) was 78.6 mm Hg and the “Diastolic Blood Pressure Mean Δ from 0” value ([5]; Person one) was “+18.6 mm Hg”. For the same compound, the “Diastolic Blood Pressure” value ([5]; Person one, 30 min) was 77 mm Hg, the “Diastolic Blood Pressure” value ([5]; Person one, 60 min) was 80 mm Hg and the “Diastolic Blood Pressure” value ([5]; Person one, 90 min) was 83 mm Hg. The “Diastolic Blood Pressure” value ([5]; Person one, 120 min) was 77 mm Hg, the “Diastolic Blood Pressure” value ([5]; Person one, 180 min) was 76 mm Hg and the “Diastolic Blood Pressure” value [5, 7] was 60 mm Hg. For the same compound, the “Diastolic Blood Pressure MEAN (30-180)” value ([5]; Person two) was 81.8 mm Hg, the “Diastolic Blood Pressure Mean Δ from 0” value ([5]; Person two) was “+8.8 mm Hg” and the “Diastolic Blood Pressure” value ([5]; Person two, 30 min) was 77 mm Hg. The “Diastolic Blood Pressure” value ([5]; Person two, 60 min) was 96 mm Hg, the “Diastolic Blood Pressure” value ([5]; Person two, 90 min) was 84 mm Hg and the “Diastolic Blood Pressure” value ([5]; Person two, 120 min) was 75 mm Hg. For the same compound, the “Diastolic Blood Pressure” value ([5]; Person two, 180 min) was 77 mm Hg, the “Diastolic Blood Pressure” value [5, 8] was 73 mm Hg and the “Respiratory Quotient MEAN (30-180)” value ([6]; Average) was 0.701. The “Respiratory Quotient MEAN (30-180)” value ([6]; Person one) was 0.704, the “Respiratory Quotient” value ([6]; Person one, 30 min after ingestion) was 0.70 and the “Respiratory Quotient” value ([6]; Person one, 60 min) was 0.65. The “Respiratory Quotient” value ([6]; Person one, 90 min) was 0.70, the “Respiratory Quotient” value ([6]; Person one, 120 min) was 0.74 and the “Respiratory Quotient” value ([6]; Person one, 180 min) was 0.73. The “Respiratory Quotient” value [6, 7] was 0.68, the “Respiratory Quotient MEAN (30-180)” value ([6]; Person two) was 0.698 and the “Respiratory Quotient” value ([6]; Person two, 30 min) was 0.70. The “Respiratory Quotient” value ([6]; Person two, 60 min) was 0.71, the “Respiratory Quotient” value ([6]; Person two, 90 min) was 0.71 and the “Respiratory Quotient” value ([6]; Person two, 120 min) was 0.71. For the same compound, the “Respiratory Quotient” value ([6]; Person two, 180 min) was 0.66 and the “Respiratory Quotient” value [6, 8] was 0.76.

Reference: US12390470B2, “1-methylxanthine-based bioactive composition and method of use thereof” (Ingenious Ingredients, LP, priority 2021, dated 2025)
